Assay results as given in US20240208969A1, “SUBSTITUTED FUSED BICYCLIC COMPOUNDS AS PARP INHIBITORS AND THE USE THEREOF” (IMPACT THERAPEUTICS (SHANGHAI), INC., priority 2021, published 2024).

Legend:
PARP2 = PARP2 (Homo sapiens, UniProt Q9UGN5); test: PARP2 chemiluminescent assay; format: biochemical; conditions: recombinant PARP2 enzyme activity, chemiluminescence
Method: (§1) Mix the solution of recombinant poly ADP ribotransferase 1 and 2 (PARP1 and PARP2) (40 ng enzyme/well) and the compounds to be tested, respectively. And then added to a 96-well plate coated with […] mixture, incubated at room temperature for 1 h. Then add 50 μL 0.3 ng/mL Streptavidin-HRP to each well. The plates were incubated for 30 minutes at room temperature. Finally, the plates were treated with streptavidin-HRP followed by addition of the ELISA ECL substrate to produce chemiluminescence that can then be measured using a chemiluminescence reader. The inhibition rate of the compound to PARP1/2 enzyme activity was calculated according to the following formula. [formula] IC50 value is obtained by fitting the s-shaped dose response curve equation by using XL Fit software. The curve equation is Y=100/(1+10^(log C−log IC50)), C is the compound concentration. Table 1 summarizes the inhibitory effects of compounds on PARP1 and PARP2 enzyme activity (IC50), wherein +++++ indicates IC50≤1 nM; ++++ indicates 1<IC50≤10 nM; +++ indicates 10 nM<IC50≤100 nM: ++ indicates 100 nM<IC50≤1 μM; + indicates IC50>1 μM.

PARP1 = PARP1 (Homo sapiens, UniProt P09874); test: PARP1 chemiluminescent assay; format: biochemical; conditions: recombinant PARP1 enzyme activity, chemiluminescence
Method: as §1

MDA-MB-436 cells = test: Inhibition of proliferation of human breast cancer MDA-MB-436 cell line (CCK-8, 7 days); format: cell-based; conditions: proliferation of MDA-MB-436, 7 days
Outline: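 Cells seeded at 3000/well were treated next day with 8 serial doses (DMSO control) for 7 days at 37° C., 5% CO2, with compound medium changed on day four. CCK-8 was added for 4 hours and OD read as 450 nm minus 650 nm. IC50 came from a sigmoidal fit of survival relative to DMSO.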

PARP1, sequence (P09874 whole entry): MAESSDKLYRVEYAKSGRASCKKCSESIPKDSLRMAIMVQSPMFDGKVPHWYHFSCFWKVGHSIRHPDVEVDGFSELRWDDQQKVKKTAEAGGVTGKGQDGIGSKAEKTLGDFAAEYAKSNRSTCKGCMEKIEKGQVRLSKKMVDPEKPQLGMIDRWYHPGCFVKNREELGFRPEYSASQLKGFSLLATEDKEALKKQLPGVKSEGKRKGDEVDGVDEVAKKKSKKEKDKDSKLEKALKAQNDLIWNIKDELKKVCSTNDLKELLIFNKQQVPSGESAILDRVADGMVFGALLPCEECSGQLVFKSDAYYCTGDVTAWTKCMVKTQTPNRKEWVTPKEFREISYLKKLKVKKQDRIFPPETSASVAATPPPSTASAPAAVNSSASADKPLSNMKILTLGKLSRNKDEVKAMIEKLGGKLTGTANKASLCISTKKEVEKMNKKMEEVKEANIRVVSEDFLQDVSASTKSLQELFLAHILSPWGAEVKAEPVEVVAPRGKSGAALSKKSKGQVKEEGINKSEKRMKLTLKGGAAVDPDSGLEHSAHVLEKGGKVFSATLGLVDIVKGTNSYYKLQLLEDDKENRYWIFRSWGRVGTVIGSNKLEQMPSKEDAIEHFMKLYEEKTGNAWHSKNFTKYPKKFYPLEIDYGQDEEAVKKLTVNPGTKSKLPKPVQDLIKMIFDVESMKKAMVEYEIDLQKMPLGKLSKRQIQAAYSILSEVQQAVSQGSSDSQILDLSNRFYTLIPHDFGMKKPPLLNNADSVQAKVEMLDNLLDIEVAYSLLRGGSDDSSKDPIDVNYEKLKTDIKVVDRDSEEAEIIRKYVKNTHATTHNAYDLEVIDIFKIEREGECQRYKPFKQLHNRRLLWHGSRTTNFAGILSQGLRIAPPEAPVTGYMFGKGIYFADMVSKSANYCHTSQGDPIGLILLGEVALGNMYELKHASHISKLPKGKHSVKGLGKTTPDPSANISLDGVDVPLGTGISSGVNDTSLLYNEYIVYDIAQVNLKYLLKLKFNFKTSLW
PARP2, sequence (Q9UGN5 whole entry, species assumed): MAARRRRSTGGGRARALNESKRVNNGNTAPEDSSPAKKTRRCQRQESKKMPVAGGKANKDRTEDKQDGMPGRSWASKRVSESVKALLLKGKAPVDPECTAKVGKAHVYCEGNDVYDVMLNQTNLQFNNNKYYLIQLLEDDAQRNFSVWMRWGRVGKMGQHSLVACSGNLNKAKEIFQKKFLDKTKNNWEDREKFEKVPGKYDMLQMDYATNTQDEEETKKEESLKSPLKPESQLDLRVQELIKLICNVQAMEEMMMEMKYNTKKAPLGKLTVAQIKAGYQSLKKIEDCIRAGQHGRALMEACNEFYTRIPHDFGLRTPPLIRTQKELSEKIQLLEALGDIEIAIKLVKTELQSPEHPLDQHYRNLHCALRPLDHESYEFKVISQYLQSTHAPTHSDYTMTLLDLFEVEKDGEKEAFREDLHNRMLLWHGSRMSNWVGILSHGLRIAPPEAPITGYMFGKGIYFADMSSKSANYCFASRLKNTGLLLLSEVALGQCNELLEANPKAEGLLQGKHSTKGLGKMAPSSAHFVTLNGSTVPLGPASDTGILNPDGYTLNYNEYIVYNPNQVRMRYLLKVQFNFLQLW

Row | IC50 (PARP2) [nM] | IC50 (PARP1) [nM] | IC50 (MDA-MB-436 cells; Homo sapiens, 168 h) [µM] | IC50 (MDA-MB-436 cells) [µM] | Structure (SMILES)
1 | > 1000 | 1 to 10 | 0.001 to 0.01 | – | CCN1Cc2c(F)cc(CN3CCN(c4ccc(C(=O)NC)nc4C)CC3)cc2NC1=O [Example 119, 5-(4-((3-ethyl-5-fluoro-2-oxo-1,2,3,4-tetrahydroquinazolin-7-yl)methyl)piperazin-1-yl)-N,6-dimethylpicolinamide]
2 | > 1000 | 1 to 10 | 0.001 to 0.01 | – | CCN1Cc2ccc(CN3CCN(c4ccc(C(=O)NC)nc4Cl)CC3)cc2NC1=O [Example 115]
3 | > 1000 | 1 to 10 | 0.01 to 0.1 | – | CNC(=O)c1ccc(N2CCN(Cc3ccc4c(=O)n(C)c(=O)[nH]c4c3)CC2)c(F)n1 [Example 17, 5-(4-((3-methyl-2,4-dioxo-1,2,3,4-tetrahydroquinazolin-7-yl)methyl)piperazin-1-yl)-6-fluoro-N-methylpicolinamide]
4 | > 1000 | 1 to 10 | 0.001 to 0.01 | – | CCNC(=O)c1ccc(N2CCN(Cc3ccc4c(c3)NC(=O)N(CC)C4)CC2)c(C)n1 [Example 117, 5-(4-((3-ethyl-2-oxo-1,2,3,4-tetrahydroquinazolin-7-yl)methyl)piperazin-1-yl)-6-methyl-N-ethylpicolinamide]
5 | > 1000 | 1 to 10 | 0.001 to 0.01 | – | CCn1c(=O)[nH]c2cc(CN3CCN(c4ccc(C(=O)NC)nc4C)CC3)ccc2c1=O [Example 22, 5-(4-((3-ethyl-2,4-dioxo-1,2,3,4-tetrahydroquinazolin-7-yl)methyl)piperazin-1-yl)-N,6-dimethylpicolinamide]
6 | > 1000 | 1 to 10 | 0.01 to 0.1 | – | CCn1c(=O)[nH]c2cc(CN3CCN(c4ccc(C(=O)NC)nc4Cl)CC3)c(F)cc2c1=O [Example 61, 6-chloro-5-(4-((3-ethyl-6-fluoro-2,4-dioxo-1,2,3,4-tetrahydroquinazolin-7-yl)methyl)piperazin-1-yl)-N-methylpicolinamide]
7 | > 1000 | ≤ 1 | > 1 | – | CCCn1c(=O)[nH]c2cc(CN3CCN(c4ccc(C(=O)NC)nc4)CC3)cnc2c1=O [Example 7]
8 | > 1000 | 1 to 10 | 0.1 to 1 | – | CCN1Cc2ccc(CN3CCN(c4ccc(C(=O)NC)nc4)CC3)cc2NC1=O [Example 15, 5-(4-((3-ethyl-2-oxo-1,2,3,4-tetrahydroquinazolin-7-yl)methyl)piperazin-1-yl)-N-methylpicolinamide]
9 | > 1000 | 1 to 10 | 0.01 to 0.1 | – | CCN1Cc2ccc(CN3CCN(c4ccc(C(=O)NC)nc4F)CC3)cc2NC1=O [Example 114, 5-(4-((3-ethyl-2-oxo-1,2,3,4-tetrahydroquinazolin-7-yl)methyl)piperazin-1-yl)-6-fluoro-N-methylpicolinamide]
10 | 100 to 1000 | 1 to 10 | > 1 | – | CCn1c(=O)[nH]c2cc(CN3CCN(c4ccc(C(=O)NC)cn4)CC3)ccc2c1=O [Example 28, 6-(4-((3-ethyl-2,4-dioxo-1,2,3,4-tetrahydroquinazolin-7-yl)methyl)piperazin-1-yl)-N-methylnicotinamide]
11 | > 1000 | 10 to 100 | > 1 | – | CNC(=O)c1ccc(N2CCN(Cc3cnc4c(=O)n(C(C)C)c(=O)[nH]c4c3)CC2)cn1 [Example 3, 5-(4-((3-isopropyl-2,4-dioxo-1,2,3,4-tetrahydropyrido[3,2-d]pyrimidin-7-yl)methyl)piperazin-1-yl)-N-methylpicolinamide]
12 | 100 to 1000 | 1 to 10 | 0.01 to 0.1 | – | CCNC(=O)c1ccc(N2CCN(Cc3ccc4c(=O)n(CC)c(=O)[nH]c4c3)CC2)c(Cl)n1 [Example 83, 6-chloro-N-ethyl-5-(4-((3-ethyl-2,4-dioxo-1,2,3,4-tetrahydroquinazolin-7-yl)methyl)piperazin-1-yl)picolinamide]
13 | 10 to 100 | 10 to 100 | > 1 | – | CCn1c(=O)[nH]c2cc(CN3CCN(c4ncc(C(=O)NC)cn4)CC3)ccc2c1=O [Example 30, 2-(4-((3-ethyl-2,4-dioxo-1,2,3,4-tetrahydroquinazolin-7-yl)methyl)piperazin-1-yl)-N-methylpyrimidine-5-carboxamide]
14 | 100 to 1000 | 1 to 10 | 0.001 to 0.01 | – | CCn1c(=O)[nH]c2cc(CN3CCN(c4ccc(C(=O)NC)nc4F)CC3)ccc2c1=O [Example 13, 5-(4-((3-ethyl-2,4-dioxo-1,2,3,4-tetrahydroquinazolin-7-yl)methyl)piperazin-1-yl)-6-fluoro-N-methylpicolinamide]
15 | > 1000 | 1 to 10 | 0.1 to 1 | – | CNC(=O)c1ccc(N2CCN(Cc3ccc4c(=O)n(C(C)C)c(=O)[nH]c4c3)CC2)c(F)n1 [Example 26, 5-(4-((3-isopropyl-2,4-dioxo-1,2,3,4-tetrahydroquinazolin-7-yl)methyl)piperazin-1-yl)-6-fluoro-N-methylpicolinamide]
16 | > 1000 | 10 to 100 | 0.01 to 0.1 | – | CCn1c(=O)[nH]c2c(F)c(CN3CCN(c4ccc(C(=O)NC)nc4F)CC3)ccc2c1=O [Example 24, 5-(4-((3-ethyl-8-fluoro-2,4-dioxo-1,2,3,4-tetrahydroquinazolin-7-yl)methyl)piperazin-1-yl)-6-fluoro-N-methylpicolinamide]
17 | > 1000 | 1 to 10 | > 1 | – | CCn1c(=O)[nH]c2cc(-c3cccc(C(=O)Nc4ccc(C(=O)NC)nc4)c3)ccc2c1=O [Example 41, 5-(3-(3-ethyl-2,4-dioxo-1,2,3,4-tetrahydroquinazolin-7-yl)benzamido)-N-methylpicolinamide]
18 | 100 to 1000 | 1 to 10 | 0.01 to 0.1 | – | CCn1c(=O)[nH]c2cc(CN3CCN(c4ccc(C(=O)NC)nc4F)CC3)c(F)cc2c1=O [Example 14, 5-(4-((3-ethyl-6-fluoro-2,4-dioxo-1,2,3,4-tetrahydroquinazolin-7-yl)methyl)piperazin-1-yl)-6-fluoro-N-methylpicolinamide]
19 | > 1000 | 1 to 10 | 0.001 to 0.01 | – | CCNC(=O)c1ccc(N2CCN(Cc3cc(F)c4c(=O)n(CC)c(=O)[nH]c4c3)CC2)c(Cl)n1 [Example 104, 6-chloro-N-ethyl-5-(4-((3-ethyl-5-fluoro-2,4-dioxo-1,2,3,4-tetrahydroquinazolin-7-yl)methyl)piperazin-1-yl)picolinamide]
20 | 100 to 1000 | ≤ 1 | > 1 | – | CCn1c(=O)[nH]c2cc(CN3CCN(c4ccc(C(=O)NC)nc4)CC3)cnc2c1=O [Example 1, 5-(4-((3-ethyl-2,4-dioxo-1,2,3,4-tetrahydropyrido[3,2-d]pyrimidin-7-yl)methyl)piperazin-1-yl)-N-methylpicolinamide]
21 | > 1000 | 1 to 10 | > 1 | – | CNC(=O)c1ccc(NC(=O)c2cccc(-c3ccc4c(=O)n(C(C)C)c(=O)[nH]c4c3)c2)cn1 [Example 42, 5-(3-(3-isopropyl-2,4 dioxo-1,2,3,4-tetrahydroquinazolin-7-yl)benzamido)-N-methylpicolinamide]
22 | > 1000 | 1 to 10 | > 1 | – | CCn1c(=O)[nH]c2cc(CN3CCN(c4ccc(C(=O)NC)nc4Cl)CC3)cnc2c1=O [Example 10, 5-(4-((3-ethyl-2,4-dioxo-1,2,3,4-tetrahydropyrido[3,2-d]pyrimidin-7-yl)methyl)piperazin-1-yl)-6-chloro-N-methylpicolinamide]
23 | 1 to 10 | 1 to 10 | – | 0.001 to 0.01 | O=C(c1cc(Cn2c(=O)[nH]c(=O)c3c(F)cccc32)ccc1F)N1CCN(c2ncccn2)CC1 [Senaparib, reference compound]
24 | 100 to 1000 | 1 to 10 | 0.001 to 0.01 | – | CCn1c(=O)[nH]c2cc(CN3CCN(c4ccc(C(=O)NC5CC5)nc4F)CC3)ccc2c1=O [Example 135, N-cyclopropyl-5-(4-((3-ethyl-2,4-dioxo-1,2,3,4-tetrahydroquinazolin-7-yl)methyl)piperazin-1-yl)-6-fluoropicolinamide]
25 | 100 to 1000 | 1 to 10 | 0.01 to 0.1 | – | CCn1c(=O)[nH]c2cc(CN3CCN(c4ccc(C(=O)NC)nc4)CC3)ccc2c1=O [Example 12, 5-(4-((3-ethyl-2,4-dioxo-1,2,3,4-tetrahydroquinazolin-7-yl)methyl)piperazin-1-yl)-N-methylpicolinamide]
26 | 100 to 1000 | 1 to 10 | 0.01 to 0.1 | – | CCn1c(=O)[nH]c2cc(CN3CCN(c4ccc(C(=O)NC(C)C)nc4F)CC3)ccc2c1=O [Example 34, 5-(4-((3-ethyl-2,4-dioxo-1,2,3,4-tetrahydroquinazolin-7-yl)methyl)piperazin-1-yl)-6-fluoro-N-isopropylpicolinamide]
